Assay results as given in PubChem BioAssay AID1636 (PCMD, 2009).

Biological target: Procathepsin L (Homo sapiens) (UniProt P07711)
Assay: CTSL enzyme inhibitors – biochemical, probe 2, dose response (AID 1636)
Conditions: purified human cathepsin L enzyme inhibition

Sequence of Procathepsin L (Homo sapiens) (P07711 114-288 limits assumed): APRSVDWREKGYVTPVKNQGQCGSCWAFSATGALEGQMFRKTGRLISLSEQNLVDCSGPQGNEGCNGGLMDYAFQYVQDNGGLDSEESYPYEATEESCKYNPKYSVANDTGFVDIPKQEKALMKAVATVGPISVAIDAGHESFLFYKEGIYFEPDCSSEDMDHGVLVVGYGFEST
Sequence of Procathepsin L (Homo sapiens) (P07711 292-333 limits assumed): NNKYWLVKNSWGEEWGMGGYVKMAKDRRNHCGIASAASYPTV

`CC(C)(C)OC(=O)N[C@@H](Cc1c[nH]c2ccccc12)C(=O)NNC(=O)OCC(=O)N1CCCc2ccccc21` gave an IC50 of 7 nM.
